Test results reported in US9643933B2, “Compounds useful as antibiotic tolerance inhibitors” (priority 2013, dated 2017).
pIC50: −log10 of the molar value. Like-named read-outs stand apart in the source and are kept apart here.

Experiments:
Pyocyanin = Pyocyanin Inhibition Assay; type: cell-based, P. aeruginosa, strain PA14; details: for IC50: Pseudomonas aeruginosa, PA14, 24 h, read-out: Pyocyanin Inhibition No. IC50 (μM)
Summary of the method: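 P. aeruginosa PA14 at OD600=0.04 in LB grown 24 h at 37° C with shaking alongside compound (0.0032-31.6 micromolar, seven points, 0.5% DMSO final). Pyocyanin in supernatant quantified from A690 (ε 4,310 M^−1 cm^−1); % inhibition versus untreated culture, IC50 by four-parameter logistic fit.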

PQS = PQS Inhibition Assay (24 Hour Incubation); type: cell-based, P. aeruginosa PA14 wild-type strain; details: for IC50: Pseudomonas aeruginosa, PA14, 24 h, read-out: PQS (24 hr) IC50 (μM)
Protocol: Test compounds are dissolved in DMSO at 10 mM and stored at −20° C. until needed. Seven test concentrations from 0.0032 micromolar to 31.6 micromolar are used for each compound. P. aeruginosa PA14 wild-type strain is inoculated into 5 mL LB broth in a 15-mL sterile glass culture tube and incubated overnight at 37° C. under shaking (˜240 rpm). The overnight culture is then diluted in LB Broth to give an OD600=0.04 (T0 culture). Colony Forming Units (CFU)/mL of the overnight culture and T0 culture are determined by a series of 1:10 serial dilutions in sterile saline. 4×20 μL of each dilution is seeded on LB agar plates and incubated at 35±2° C. for 20 hours. CFU/mL is determined from the dilution that gives 2 to 50 colonies/20 μL.
For concentration response curve (CRC) experiments, internal standard (2-((5-nitro-1H-indol-2-yl)thio)-N-(4-phenoxyphenyl)acetamide)) and test compounds are serially diluted in DMSO to give 200 times of each final concentration (0.5% DMSO final), and 1 μL/well is dispensed in duplicate into 2-mL wells of a 96 well deep well plate. 200 μL/well of T0 culture is added to each internal standard/test compound well used to determine PQS control level. Wells containing only LB broth (blank wells) are also included in the plate.
The plate is sealed and incubated at 37° C. for 24 hours under shaking (˜700 rpm) using a microtiter shaker. At the end of the incubation period, 150 μL/well of the deep well plate culture are transferred in a new non-sterile plate, and 150 μL/well of methanol containing tetra-deuterated PQS (D4-PQS) and 2% acetic acid are added to each well. The plate is sealed, shaken at high speed for 5 minutes and centrifuged at 4,000 g for 40 minutes at room temperature. 100 μL/well of the supernatant is then transferred to glass vials (vials crimp 0.2 mL) and kept at 4° C. until LC-MS/MS analysis.
PQSs quantification is carried out by analyzing samples in discrete batches together with spiked standards and blank samples.
Calibration curves are constructed from PQS standards, and respective deuterated PQS is used as an Internal Standards (IS) to calculate the concentration of analytes in the sample and improve the precision of the assay. The back-calculated concentrations of the calibration standards from the calibration curve shall be within ±20% of the nominal values, the range of the analytical method is determined, and the lower and upper limit of quantification specified.
Liquid chromatography separations are performed using an Agilent HP1100 system (Agilent Technologies) coupled with a CTC PAL Autosampler (CTC Analytics AG). Chromatographic retention is obtained using a monolithic column (Chromolith® RP-18, 50×4.6 mm). The solvent system consists of water containing 0.1% (v/v) formic acid (A) and acetonitrile containing 0.1% (v/v) formic acid (B). The gradient elution profile is chosen as follows: 0 min: 70% A (1500 μL/min), 0.3 min: 70% A (1500 μL/min), 1.3 min: 5% A (2500 μL/min), 1.6 min: 5% A (2500 μL/min).
The MS/MS analysis is performed with an API4000 series mass spectrometer (AB Sciex™) operating in Multiple Reaction Monitoring (MRM) mode and equipped with a TIS ion source. The specific ions monitored are PQS (m/z 260→m/z 175) and D4-PQS (m/z 264→m/z 179). The computer systems used in this study to acquire and quantify data may be an Analyst™ v1.5.
PQS in the presence of different concentrations of test compound are expressed as percentage of inhibition of the basal level in control samples. Curve fitting and IC50 estimations are carried out using a four parameter logistic model using GraphPad Prism v.5 program.

Molecule | pIC50 (Pyocyanin; P. aeruginosa PA14 culture, 24 hours at 37° C., pyocyanin in supernatant by absorbance at 690 nm, read-out: Pyocyanin Inhibition No. IC50) | pIC50 (PQS; P. aeruginosa PA14 culture, 24 hours incubation, PQS by LC-MS/MS, read-out: PQS (24 hr) IC50) | IC50 (Pyocyanin) [µM] | IC50 (PQS) [µM]
2-((5-chloro-1H-benzo[d]imidazol-2-yl)thio)-N-(4-(pyrimidin-5-yloxy)phenyl)acetamide [Compound 79] | > 7.00 | > 6.00 | – | –
N#Cc1ccc(NC(=O)CSc2nc3cc(C(F)(F)F)ccc3[nH]2)cc1 [Compound 56] | – | – | < 0.1 | < 1
N#Cc1ccc(NC(=O)CSc2nc3cc(F)ccc3[nH]2)cc1 [Compound 57] | – | – | 0.1 to 1 | 1 to 5
O=C(CNc1nc2cc(Cl)ccc2s1)Nc1ccc(Oc2cccnc2)cc1 [Compound 71, 2-((5-chlorobenzo[d]thiazol-2-yl)amino)-N-(4-(pyridin-3-yloxy)phenyl)acetamide] | – | – | 0.1 to 1 | 5 to 10
O=C(CNc1nc2cc(Cl)ccc2o1)Nc1ccc(Oc2cccnc2)cc1 [Compound 74, 2-((5-chlorobenzo[d]oxazol-2-yl)amino)-N-(4-(pyridin-3-yloxy)phenyl)acetamide] | – | – | 0.1 to 1 | 1 to 5
O=C(CSc1nc2cc(Cl)ccc2[nH]1)Nc1ccc(Oc2cccnc2)cc1 [Compound 77, 2-((5-chloro-1H-benzo[d]imidazol-2-yl)thio)-N-(4-(pyridin-3-yloxy)phenyl)acetamide] | – | – | < 0.1 | < 1
O=C(CSc1nc2cc(Cl)ccc2[nH]1)Nc1ccc(Oc2cccnc2Cl)cc1 [Compound 83, 2-((5-chloro-1H-benzo[d]imidazol-2-yl)thio)-N-(4-((2-chloropyridin-3-yl)oxy)phenyl)acetamide] | – | – | < 0.1 | < 1
O=C(CSc1nc2cc(Cl)ccc2[nH]1)Nc1ccc(Oc2ccc(Cl)nc2)cc1 [Compound 84, 2-((5-chloro-1H-benzo[d]imidazol-2-yl)thio)-N-(4-((6-chloropyridin-3-yl)oxy)phenyl)acetamide] | – | – | < 0.1 | 1 to 5
O=C(CCc1nc2cc(Cl)ccc2s1)Nc1ccc(Oc2cccnc2)cc1 [Compound 85, 3-(5-chlorobenzo[d]thiazol-2-yl)-N-(4-(pyridin-3-yloxy)phenyl)propanamide] | – | – | 0.1 to 1 | > 10
O=C(CCc1nc2ccc(Cl)cc2s1)Nc1ccc(Oc2cccnc2)cc1 [Compound 86, 3-(6-Chlorobenzo[d]thiazol-2-yl)-N-(4-(pyridin-3-yloxy)phenyl)propanamide] | – | – | 0.1 to 1 | > 10
N#Cc1ccc(NC(=O)CSc2nc3ccc(C#N)cc3[nH]2)cc1 [Compound 93] | – | – | 0.1 to 1 | < 1
N#Cc1ccc2nc(SCC(=O)Nc3ccc(Cl)cc3)[nH]c2c1 [Compound 94] | – | – | 0.1 to 1 | 1 to 5
N#Cc1ccc(NC(=O)CSc2nc3cc(Br)ccc3[nH]2)cc1 [Compound 96] | – | – | < 0.1 | < 1
N#Cc1ccc(NC(=O)CSc2nc3cc(OC(F)F)ccc3[nH]2)cc1 [Compound 104] | – | – | 0.1 to 1 | 5 to 10
O=C(CSc1nc2cc(C(F)(F)F)ccc2[nH]1)Nc1ccc(Cl)cc1 [Compound 105] | – | – | 0.1 to 1 | 1 to 5
O=C(CSc1nc2cc(F)ccc2[nH]1)Nc1ccc(Cl)cc1 [Compound 110] | – | – | 0.1 to 1 | 5 to 10
O=C(CSc1nc2ccc(-n3cccn3)cc2[nH]1)Nc1ccc(Cl)cc1 [Compound 116] | – | – | 0.1 to 1 | > 10
N#Cc1ccc(NC(=O)CSc2nc3cc(Cl)ccc3[nH]2)cc1 [Compound 125] | – | – | < 0.1 | < 1
O=C(CSc1nc2cc(F)c(F)cc2[nH]1)Nc1ccc(Br)cc1 [Compound 126] | – | – | 0.1 to 1 | > 10
O=C(CSc1nc2ccc(Cl)cc2[nH]1)Nc1ccc(Cl)cc1 [Compound 137] | – | – | 0.1 to 1 | 1 to 5
COc1ccc(NC(=O)CSc2nc3ccc(Cl)cc3[nH]2)cc1 [Compound 140] | – | – | 0.1 to 1 | 5 to 10
N#Cc1ccc(NC(=O)CSc2nc3cc(Cl)ccc3[nH]2)cc1Cl [Compound 142] | – | – | 0.1 to 1 | < 1
O=C(CSc1nc2ccc(Br)cc2[nH]1)Nc1ccc(Cl)cc1 [Compound 145] | – | – | 0.1 to 1 | > 10
N#Cc1ccc(NC(=O)CSc2nc3cc(Br)ccc3o2)cc1 [Compound 147] | – | – | 0.1 to 1 | 1 to 5
O=C(CCc1nc2ccc(Cl)cc2[nH]1)Nc1ccc(Oc2cccnc2)cc1 [Compound 152, 3-(5-chloro-1H-benzo[d]imidazol-2-yl)-N-(4-(pyridin-3-yloxy)phenyl)propanamide] | – | – | 0.1 to 1 | 1 to 5
